According to patent US11773078B2, “Furin inhibitors” (Glaxosmithkline Intellectual Property Development Limited, priority 2018, dated 2023):
Counter-ions that a name gives are not always drawn.

Columns and labels:
[1] = target: T1, furin (endogenous protease) in U20S cells (Homo sapiens, UniProt P09958); experiment: Furin cell-based assay (image-based, Golgi-targeted GFP with BMP10 furin/PCSK cleavage site); details: 24-hour incubation, read-out: furin golgi cell pXC50 (converted);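 also: Read-out is mean GFP fluorescence of Golgi puncta per cell by high-content imaging, retained when furin inhibited, over an eleven-point 0.00017–10 µM series, four-parameter fit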
T1 construct: the endogenous protease cleaves GFP; endogenous in cells; host or cells: U2OS cells transduced with a BacMam reporter
T1 sequence (P09958 108-794): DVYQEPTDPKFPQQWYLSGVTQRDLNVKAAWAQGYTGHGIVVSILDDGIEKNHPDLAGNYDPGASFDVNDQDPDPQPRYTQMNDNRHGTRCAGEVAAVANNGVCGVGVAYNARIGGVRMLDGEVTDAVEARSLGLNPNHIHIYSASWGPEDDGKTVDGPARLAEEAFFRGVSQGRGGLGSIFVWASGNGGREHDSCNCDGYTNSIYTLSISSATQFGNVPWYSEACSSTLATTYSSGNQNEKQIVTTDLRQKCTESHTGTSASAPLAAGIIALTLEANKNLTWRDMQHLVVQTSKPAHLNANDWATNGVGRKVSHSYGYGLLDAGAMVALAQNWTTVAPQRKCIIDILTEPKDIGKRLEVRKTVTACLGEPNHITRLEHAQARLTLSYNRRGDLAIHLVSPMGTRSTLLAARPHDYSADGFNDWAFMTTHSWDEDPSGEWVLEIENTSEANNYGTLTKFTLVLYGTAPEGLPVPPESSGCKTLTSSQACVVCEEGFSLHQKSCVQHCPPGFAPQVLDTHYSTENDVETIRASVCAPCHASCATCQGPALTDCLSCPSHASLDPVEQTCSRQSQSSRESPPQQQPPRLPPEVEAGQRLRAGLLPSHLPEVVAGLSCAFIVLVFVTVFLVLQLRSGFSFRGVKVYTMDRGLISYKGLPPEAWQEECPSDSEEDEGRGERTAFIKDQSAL

[2] = test system: hydroxyproline (a specific marker for collagen) in mouse lung; experiment: Bleomycin induced lung fibrosis model: hydroxyproline assay; type: in vivo; details: relative to levels induced by Bleomycin in vehicle treated animals, *p < 0.05
Description: (§1) Preclinical pulmonary fibrosis can be induced by single instillation of Bleomycin to the mouse lung. A 15-day Bleomycin protocol was developed to evaluate compounds of the invention in vivo for their ability to inhibit TGFβ secretion and collagen deposition in the mouse lung. On the day before Bleomycin instillation, compounds were administrated to mice based on the appropriate route and frequency. On the study initiation day, under Ketamine (80 mg/kg) and Xylazine (10 mg/kg) anesthesia, all the animals were cannulated oro-tracheally and 50 μL of normal saline (Sham control) or 0.03 U Bleomycin in 50 μL saline (all groups except sham control group) was delivered into the trachea. Compounds were dosed daily until the end of study on Day 15. On termination day, animals were euthanized using CO2 inhalation. The right lung was collected, washed in normal saline, weighed, flash frozen in liquid nitrogen and stored at −80° C. for hydroxyproline (a specific marker for collagen) and TGFβ assays.
(§2) Flash frozen whole right lung tissues were homogenized in 500 μL of RIPA buffer containing PMSF and protease inhibitor cocktail using zirconium oxide bead based homogenizer (Bullet blender Gold, NextAdvance, Germany). Briefly, tissues were spun in the homogenizer at 4° C. for three cycles of 10 minutes each at 1000 g. A complete uniform tissue mixture was obtained using this procedure. The homogenate volume was made up to 1.5 mL by adding 1 mL of RIPA buffer containing PMSF and protease inhibitor cocktail to 500 μL of homogenate. The homogenate was stored as aliquots of 100-500 μL each at −80° C.
Acid hydrolysis: 500 μL of the homogenized lung parenchyma was transferred to glass vials, and an equal volume of 12N HCl was added (final concentration of HCl: 6N). The vials were purged with nitrogen gas, sealed and incubated overnight (16 h) under anoxic conditions at 110° C.
Post incubation procedures: 35 μL of the sample from each tube or standard (prepared by serial dilution of hydroxyproline stock solution) was added onto a 96 well plate and the assay was performed as per the kit protocol (Quickzyme Biosciences: Cat #: QZBHYPR05). After the final color development, absorbance was measured by colorimetric analysis at 570 nm (using Thermoscan spectrum (Plate Reader) and results were recorded. Standard curve (linear graph) was generated by using hydroxyproline standards provided in the Quickzyme kit.

[3] = test system: TGFβ in mouse lung; experiment: Bleomycin induced lung fibrosis model: TGFβ assay; type: in vivo; details: relative to levels induced by Bleomycin in vehicle treated animals, *p < 0.05
Description: as §1, §2
Lung tissue homogenates (500 μL) were spun at 13,000 rpm for 20 minutes at 4° C. and supernatants were collected for TGFβ estimation. The assay was performed according to the manufacturer's manual (R&D systems: Cat #SMB100B). Briefly, the lung homogenates were activated by acid activation followed by neutralization to convert latent TGFβ to active TGFβ and the total TGFβ levels in supernatants were measured. Total protein levels in the lung supernatant were also determined.

[4] = target: T2, Furin (108-574-Tev-Flag-His) enzyme (Homo sapiens, UniProt P09958); experiment: Furin enzyme assay; type: biochemical
T2 construct: Furin (108-574-Tev-Flag-His) enzyme was expressed and purified from CHO cells; TEV cleavage site (C); FLAG (C); His (C); made in house; host or cells: CHO cells
T2 sequence (P09958 108-574): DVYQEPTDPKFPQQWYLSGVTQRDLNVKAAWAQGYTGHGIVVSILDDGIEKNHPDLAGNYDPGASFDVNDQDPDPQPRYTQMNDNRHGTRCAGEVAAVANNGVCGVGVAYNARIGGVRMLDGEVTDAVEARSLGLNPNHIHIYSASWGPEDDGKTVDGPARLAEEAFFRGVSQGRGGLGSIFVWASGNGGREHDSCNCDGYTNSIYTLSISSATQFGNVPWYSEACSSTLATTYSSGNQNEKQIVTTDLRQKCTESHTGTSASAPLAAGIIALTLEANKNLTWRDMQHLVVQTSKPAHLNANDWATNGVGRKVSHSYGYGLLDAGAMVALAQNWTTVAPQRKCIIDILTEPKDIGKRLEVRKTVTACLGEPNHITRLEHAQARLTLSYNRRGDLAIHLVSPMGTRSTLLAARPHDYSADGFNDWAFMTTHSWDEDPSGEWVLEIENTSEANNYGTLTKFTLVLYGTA
Summary of the method: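 Compounds ran as 11-point threefold dilutions (0.00017–10 μM final) against 40 pM furin, purified from CHO cells, for 2 h at room temperature. Buffer: 100 mM HEPES pH7.5 with 1 mM CaCl2 and 0.005% Triton X-100. Envision readout. Four-parameter curve gives pXC50.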

[5] = test system: epithelial sodium channel (ENaC); experiment: TEER assay, chronic or acute treatment, Non-CF Polarized Human Lobar Bronchial Epithelial Cells; type: cell-based; design: RTE Before Amil / RTE After Amil: unit not given here; details: for Delta RTE / RTE After Amil / RTE Before Amil: chronic treatment (overnight)
Description: Primary cultures of CF delF508 or non-CF HBE cells are seeded onto permeable filter supports and grown for 12-14 days for a significant RTE to be measured for TEER assays.
When the ENaC is active under basal conditions (at least in part due to protease cleavage inside the cell or at the apical membrane), there is a finite RTE that is affected by the Na+ current flowing through ENaC heterotrimers (αβγ or δβγ).

[6] = acute treatment, 3 μM thru 50 μM
[7] = 10 mg/kg, Intra-peritoneal, Twice daily
[8] = 10 mg/kg, Intra-peritoneal, Once daily

Compound: CC(CC1CCN(Cc2cc(Oc3cnc(N4CCN(C)CC4)nc3)nc(-c3cc(Cl)cc(Cl)c3)c2)CC1)C(=O)O (stereo in doubt) [Example 137, (R)-3-(1-((2-(3,5-dichlorophenyl)-6-((2-(4-methylpiperazin-1-yl)pyrimidin-5-yl)oxy)pyridin-4-yl)methyl)piperidin-4-yl)-2-methylpropanoic acid]
- EC50 [1]: 10 nM
- % inhibition of hydroxyproline in lung ([2]; 10 mg/kg, Oral, Once daily): 54* %
- % inhibition of total TGFβ in lung ([3]; 10 mg/kg, Oral, Once daily): 81* %
- furin enzyme pIC50 [4]: 9.1

Compound: CN(C)C(=O)COC(=O)Cc1ccc(OC(=O)c2ccc(NC(=N)N)cc2)cc1 [Camostat]
- Delta RTE after Amil [5, 6]: +15 ± 2
- Delta RTE after Volume Additions [5, 6]: +82 ± 4
- inhibition of amiloride-sensitive RTE delta (remaining ENaC activity) ([5]; acute treatment, tested at much higher concentrations than Example 11): more strongly
- effect on the amiloride-sensitive RTE delta ([5]; chronic overnight treatment, 50 μM, P<0.05): equivalent inhibitory effect
- Delta RTE ([5]; 3 μM): +172 ± 20
- RTE After Amil ([5]; 3 μM): 615 ± 26
- RTE Before Amil ([5]; 3 μM): 443 ± 6
- Delta RTE ([5]; 10 μM): +119 ± 1
- RTE After Amil ([5]; 10 μM): 506 ± 10
- RTE Before Amil ([5]; 10 μM): 387 ± 11
- Delta RTE ([5]; 30 μM): +163 ± 8
- RTE After Amil ([5]; 30 μM): 635 ± 13
- RTE Before Amil ([5]; 30 μM): 472 ± 6
- Delta RTE ([5]; 50 μM): +98 ± 2
- RTE After Amil ([5]; 50 μM): 446 ± 3
- RTE Before Amil ([5]; 50 μM): 348 ± 4

Compound: CC(=O)NCC1CCN(Cc2cc(Oc3ccc(N4CCN(CC(=O)O)CC4)nc3)nc(-c3cc(Cl)cc(Cl)c3)c2)CC1 [Example 10, 2-(4-(5-((4-((4-(Acetamidomethyl)piperidin-1-yl)methyl)-6-(3,5-dichlorophenyl)pyridin-2-yl)oxy)pyridin-2-yl)piperazin-1-yl)acetic acid, 4 hydrochloride]
- EC50 [1]: 126 nM
- % inhibition of hydroxyproline in lung [2, 7]: 16%
- % inhibition of total TGFβ in lung [3, 7]: 43* %
- furin enzyme pIC50 [4]: 8.7

Compound: CC(=O)NCC1CCN(Cc2cc(Oc3ccc(N4CCN(CCS(C)(=O)=O)CC4)nc3)nc(-c3cc(Cl)cc(Cl)c3)c2)CC1 [Example 12, N-((1-((2-(3,5-Dichlorophenyl)-6-((6-(4-(2-(methylsulfonyl)ethyl)piperazin-1-yl)pyridin-3-yl)oxy)pyridin-4-yl)methyl)piperidin-4-yl)methyl)acetamide, 4 hydrochloride]
- EC50 [1]: 25.1 nM
- % inhibition of hydroxyproline in lung ([2]; 30 mg/kg, Oral, Once daily): 45* %
- % inhibition of total TGFβ in lung ([3]; 30 mg/kg, Oral, Once daily): 41* %
- furin enzyme pIC50 [4]: 8.3

Compound: CNC(=O)NCC1CCN(Cc2cc(Oc3ccc(N4CCN(CCC(=O)O)CC4)nc3)nc(-c3cc(Cl)cc(Cl)c3)c2)CC1 [Example 41, 3-(4-(5-((6-(3,5-Dichlorophenyl)-4-((4-((3-methylureido)methyl)piperidin-1-yl)methyl)pyridin-2-yl)oxy)pyridin-2-yl)piperazin-1-yl)propanoic acid]
- EC50 [1]: 25.1 nM
- % inhibition of hydroxyproline in lung [2, 8]: 39* %
- % inhibition of total TGFβ in lung [3, 8]: 67* %
- furin enzyme pIC50 [4]: 9.1

Compound: COC(=O)NCC1CCN(Cc2cc(Oc3cnc(N4CCN(CCC(=O)O)CC4)nc3)nc(-c3cc(Cl)cc(Cl)c3)c2)CC1 [Example 62, 3-(4-(5-((6-(3,5-Dichlorophenyl)-4-1(4-(((methoxycarbonyl)amino)methyl)piperidin-1-yl)methyl)pyridin-2-yl)oxy)pyrimidin-2-yl)piperazin-1-yl)propanoic acid, 4 hydrochloride]
- EC50 [1]: 31.6 nM
- % inhibition of hydroxyproline in lung ([2]; 30 mg/kg, Oral, Once daily): −14%
- % inhibition of total TGFβ in lung ([3]; 30 mg/kg, Oral, Once daily): 7%
- furin enzyme pIC50 [4]: 9.8

Compound: CN1CCCN(c2ncc(Oc3cc(CN4CCC(CC(=O)O)CC4)cc(-c4cc(Cl)cc(Cl)c4)n3)cn2)CC1 [Example 126, 2-(1-((2-(3,5-Dichlorophenyl)-6-((2-(4-methyl-1,4-diazepan-1-yl)pyrimidin-5-yl)oxy)pyridin-4-yl)methyl)piperidin-4-yl)acetic acid]
- EC50 [1]: 6.31 nM
- % inhibition of hydroxyproline in lung ([2]; 30 mg/kg, Oral, Once daily): 36* %
- % inhibition of total TGFβ in lung ([3]; 30 mg/kg, Oral, Once daily): 34* %
- furin enzyme pIC50 [4]: 9

Compound: CC(=O)NCC1CCN(Cc2cc(Oc3ccc(N4CCN(CCO)CC4)nc3)nc(-c3cc(Cl)cc(Cl)c3)c2)CC1 [Example 180, N-((1-((2-(3,5-Dichlorophenyl)-6-((6-(4-(2-hydroxyethyl)piperazin-1-yl)pyridin-3-yl)oxy)pyridin-4-yl)methyl)piperidin-4-yl)methyl)acetamide]
- EC50 [1]: 3.16 nM
- % inhibition of hydroxyproline in lung [2, 8]: 56* %
- % inhibition of total TGFβ in lung [3, 8]: 60* %
- furin enzyme pIC50 [4]: 9.1

Compound: O=C(O)CC1CCN(Cc2cc(Oc3cnc(N4CCNCC4)nc3)nc(-c3cc(Cl)cc(Cl)c3)c2)CC1 [Example 206, 2-(1-((2-(3,5-Dichlorophenyl)-6-((2-(piperazin-1-yl)pyrimidin-5-yl)oxy)pyridin-4-yl)methyl)piperidin-4-yl)acetic acid]
- EC50 [1]: 25.1 nM
- % inhibition of hydroxyproline in lung ([2]; 10 mg/kg, Oral, Once daily): 6%
- % inhibition of total TGFβ in lung ([3]; 10 mg/kg, Oral, Once daily): −11%
- furin enzyme pIC50 [4]: 8.6

Compound: CN1CCN(c2ncc(Oc3cc(CN4CCC(CC(=O)O)CC4)cc(-c4cc(Cl)cc(Cl)c4)n3)cn2)CC1 [Example 207, 2-(1-((2-(3,5-Dichlorophenyl)-6-((2-(4-methylpiperazin-1-yl)pyrimidin-5-yl)oxy)pyridin-4-yl)methyl)piperidin-4-yl)acetic acid]
- % inhibition of hydroxyproline in lung ([2]; 10 mg/kg, Oral, Once daily): 46* %
- % inhibition of total TGFβ in lung ([3]; 10 mg/kg, Oral, Once daily): 66* %

Compound: CS(=O)(=O)CCCN1CCN(c2ncc(Oc3cc(CN4CCC(CC(=O)O)CC4)cc(-c4cc(Cl)cc(Cl)c4)n3)cn2)CC1 [Example 242, 2-(1-((2-(3,5-Dichlorophenyl)-6-((2-(4-(3-(methylsulfonyl)propyl)piperazin-1-yl)pyrimidin-5-yl)oxy)pyridin-4-yl)methyl)piperidin-4-yl)acetic acid]
- EC50 [1]: 25.1 nM
- % inhibition of hydroxyproline in lung ([2]; 10 mg/kg, Oral, Once daily): −1%
- % inhibition of total TGFβ in lung ([3]; 10 mg/kg, Oral, Once daily): 40* %
- furin enzyme pIC50 [4]: 8.6

Compound: CN1CCCN(c2ncc(Oc3cc(CN4CC[C@@H]5[C@H](CC4)[C@H]5C(=O)O)cc(-c4cc(Cl)cc(Cl)c4)n3)cn2)CC1 [Example 397, (1R,7S,8r)-4-((2-(3,5-Dichlorophenyl)-6-((2-(4-methyl-1,4-diazepan-1-yl)pyrimidin-5-yl)oxy)pyridin-4-yl)methyl)-4-azabicyclo[5.1.0]octane-8-carboxylic acid, 4 hydrochloride]
- EC50 [1]: 25.1 nM
- furin enzyme pIC50 [4]: 9

Compound: CN1C2CCC1CN(c1ncc(Oc3cc(CN4CCC(CC(=O)O)CC4)cc(-c4cc(Cl)cc(Cl)c4)n3)cn1)C2 [Example 398, 2-(1-((2-(3,5-dichlorophenyl)-6-((2-(8-methyl-3,8-diazabicyclo[3.2.1]octan-3-yl)pyrimidin-5-yl)oxy)pyridin-4-yl)methyl)piperidin-4-yl)acetic acid]
- EC50 [1]: 6.31 nM
- furin enzyme pIC50 [4]: 8.9

Compound: O=C(O)CC1CCN(Cc2cc(Oc3cnc(N4CCNCC(F)C4)nc3)nc(-c3cc(Cl)cc(Cl)c3)c2)CC1 (stereo not drawn) [Example 399, 2-(1-((2-(3,5-dichlorophenyl)-6-((2-(6-fluoro-1,4-diazepan-1-yl)pyrimidin-5-yl)oxy)pyridin-4-yl)methyl)piperidin-4-yl)acetic acid]
- EC50 [1]: 39.8 nM
- furin enzyme pIC50 [4]: 8.8
